Test results as given in patent publication US11957684B2, “Treatment of heavy menstrual bleeding associated with uterine fibroids” (Sumitomo Pharma Switzerland GmbH, priority 2016, dated 2024).

Key:
FIG. 75 = test: FIG. 75
From the text: Table printed on a drawing sheet, FIG. 75
First reader's note: Each body row is one statistic (N, Mean, SD, quartiles, range) of the plasma concentration for one dose group, so N rows are subject counts and SD rows are errors; the dose group name is printed only on the N row and is repeated here for its group.

FIG. 167 = test: FIG. 167
From the text: Table printed on a drawing sheet, FIG. 167
First reader's note: Units stand in the cells; each column is one drug and the rows are its properties.

[1] = literature (Struthers et al. 2009); cited from earlier work

From the text for FIG. 73: First reader's note: Each row is one summary statistic (N, mean, SD, quartiles, range) of the plasma concentration for one dose group; the N rows are subject counts, not ng/mL, and the columns are visit/sampling times.

Structure (SMILES)	Visit | Week 2: Predose (FIG. 75)	Visit | Week 4: Predose (FIG. 75)	Visit | Week 12 (FIG. 75)	Visit | Week 0: 0.5-[…] (FIG. 73)	Visit | Week 0: 2-5hr (FIG. 73)	Visit | Week 2: 2-5hr (FIG. 73)	Visit | Week 2: Predose (FIG. 73)	Visit | Week 4: 2-5hr (FIG. 73)	Visit | Week 4: Predose (FIG. 73)	Visit | Week 8: 0.5-[…] (FIG. 73)	Visit | Week 8: 2-5hr (FIG. 73)	Visit | Week 8: Predose (FIG. 73)	Visit | Week 12 (FIG. 73)	Visit | Week 16: Predose (FIG. 73)	Visit | Week 20: Predose (FIG. 73)	Visit | Week 24 (FIG. 73)	Visit | Week 8: Predose (FIG. 75)	Visit | Week 2: 0.5-[…] (FIG. 73)	Visit | Week 4: 0.5-[…] (FIG. 73)	Observed Half-life (FIG. 167)	also measured
CONC(=O)Nc1ccc(-c2sc3c(c2CN(C)C)c(=O)n(-c2ccc(OC)nn2)c(=O)n3Cc2c(F)cccc2F)cc1 [Compound 1 10 mg]	0.0898 ng/mL	0.1880 ng/mL	0.8620 ng/mL	0.5290 ng/mL	0.5641 ng/mL	0.8025 ng/mL	0.3100 ng/mL	0.9672 ng/mL	0.2670 ng/mL	1.324 ng/mL	0.8301 ng/mL	0.3406 ng/mL	0.2783 ng/mL	0.3251 ng/mL	0.3138 ng/mL	0.2811 ng/mL	–	–	–	–	Visit | Week 2: 0.5-[…] (FIG. 75): 0.9860 ng/mL; Visit | Week 2: 2-5hr (FIG. 75): 0.8280 ng/mL; Visit | Week 4: 0.5-[…] (FIG. 75): 0.9140 ng/mL; Visit | Week 4: 2-5hr (FIG. 75): 0.3720 ng/mL; Visit | Week 8: 0.5-[…] (FIG. 75): 2.192 ng/mL; Visit | Week 8: 2-5hr (FIG. 75): 1.320 ng/mL; Visit | Week 16: Predose (FIG. 75): 0.1500 ng/mL
CONC(=O)Nc1ccc(-c2sc3c(c2CN(C)C)c(=O)n(-c2ccc(OC)nn2)c(=O)n3Cc2c(F)cccc2F)cc1 [Compound 1 20 mg]	0.8990 ng/mL	0.3880 ng/mL	0.8320 ng/mL	2.784 ng/mL	2.154 ng/mL	2.981 ng/mL	0.8002 ng/mL	3.567 ng/mL	0.6640 ng/mL	3.437 ng/mL	2.643 ng/mL	0.8032 ng/mL	0.6904 ng/mL	0.6280 ng/mL	0.7132 ng/mL	0.6712 ng/mL	0.3380 ng/mL	2.912 ng/mL	3.515 ng/mL	–	Visit | Week 0: 0.5-[…] (FIG. 75): 7.570 ng/mL; Visit | Week 24 (FIG. 75): 0.7470 ng/mL
CONC(=O)Nc1ccc(-c2sc3c(c2CN(C)C)c(=O)n(-c2ccc(OC)nn2)c(=O)n3Cc2c(F)cccc2F)cc1 [Compound 1 40 mg]	–	–	1.520 ng/mL	7.424 ng/mL	7.680 ng/mL	7.550 ng/mL	2.383 ng/mL	8.479 ng/mL	2.315 ng/mL	10.29 ng/mL	11.20 ng/mL	2.233 ng/mL	1.987 ng/mL	1.995 ng/mL	2.240 ng/mL	1.908 ng/mL	3.580 ng/mL	9.210 ng/mL	11.61 ng/mL	–	–
COc1cccc(-c2c(C)n(Cc3c(F)cccc3C(F)(F)F)c(=O)n(C[C@H](NCCCC(=O)O)c3ccccc3)c2=O)c1F [Elagolix^2]	–	–	–	–	–	–	–	–	–	–	–	–	–	–	–	–	–	–	–	2 to 6 h	–
CONC(=O)Nc1ccc(-c2sc3c(c2CN(C)C)c(=O)n(-c2ccc(OC)nn2)c(=O)n3Cc2c(F)cccc2F)cc1 [Relugolix^1]	–	–	–	–	–	–	–	–	–	–	–	–	–	–	–	–	–	–	–	37 to 42 h	–
COc1cccc(-c2c(C)n(Cc3c(F)cccc3C(F)(F)F)c(=O)n(C[C@H](NCCCC(=O)O)c3ccccc3)c2=O)c1F [elagolix]	–	–	–	–	–	–	–	–	–	–	–	–	–	–	–	–	–	–	–	–	half-life [1]: 2.4 to 6.3 h
